Consider 24 compounds from US20260356804A1, “SODIUM CHANNEL BLOCKING COMPOUNDS, DERIVATIVES THEREOF, AND METHODS OF THEIR USE” (LATIGO BIOTHERAPEUTICS, INC., priority 2022, published 2026).

This assay addresses T1, human Nav1.8/b3 (Homo sapiens, UniProt Q9Y5Y9).
T1 construct: expressed in transfected cells; host or cells: CHO
Nature of the assay: Compound Profiling Human NaV1.8/β3 Cell Line—SyncroPatch384PE Assay (automated patch clamp, stably transfected CHO cells). It is filed as cell-based. The note with it: Nav1.8/b3 CHO cells. For orientation: In patch-clamp work, channel activity is measured electrically.

Where [1] appears, read: P1 (IC50, resting state block), P1 measurement, resting state block, holding potential −120 mV, fourth set of compounds.
Where [2] appears, read: P2 (IC50, inactivated state block), P2 measurement, inactivated state block, inactivation step −35 mV 10 sec, fourth set of compounds.
Setting [3] is: P1 (IC50, resting state block), P1 measurement, resting state block, holding potential −120 mV, third set of compounds.
The mark [4] stands for this setting: P2 (IC50, inactivated state block), P2 measurement, inactivated state block, inactivation step −35 mV 10 sec, third set of compounds.
The mark [5] stands for this setting: P1 (IC50, resting state block), P1 measurement, resting state block, holding potential −120 mV, first set of compounds.
Where [6] appears, read: P2 (IC50, inactivated state block), P2 measurement, inactivated state block, inactivation step −35 mV 10 sec, first set of compounds.
[7] abbreviates: P1 (IC50, resting state block), P1 measurement, resting state block, holding potential −120 mV, second set of compounds.
Where [8] appears, read: P2 (IC50, inactivated state block), P2 measurement, inactivated state block, inactivation step −35 mV 10 sec, second set of compounds.

Like-named read-outs stand apart in the source and are kept apart here.

T1 sequence (Q9Y5Y9 whole entry): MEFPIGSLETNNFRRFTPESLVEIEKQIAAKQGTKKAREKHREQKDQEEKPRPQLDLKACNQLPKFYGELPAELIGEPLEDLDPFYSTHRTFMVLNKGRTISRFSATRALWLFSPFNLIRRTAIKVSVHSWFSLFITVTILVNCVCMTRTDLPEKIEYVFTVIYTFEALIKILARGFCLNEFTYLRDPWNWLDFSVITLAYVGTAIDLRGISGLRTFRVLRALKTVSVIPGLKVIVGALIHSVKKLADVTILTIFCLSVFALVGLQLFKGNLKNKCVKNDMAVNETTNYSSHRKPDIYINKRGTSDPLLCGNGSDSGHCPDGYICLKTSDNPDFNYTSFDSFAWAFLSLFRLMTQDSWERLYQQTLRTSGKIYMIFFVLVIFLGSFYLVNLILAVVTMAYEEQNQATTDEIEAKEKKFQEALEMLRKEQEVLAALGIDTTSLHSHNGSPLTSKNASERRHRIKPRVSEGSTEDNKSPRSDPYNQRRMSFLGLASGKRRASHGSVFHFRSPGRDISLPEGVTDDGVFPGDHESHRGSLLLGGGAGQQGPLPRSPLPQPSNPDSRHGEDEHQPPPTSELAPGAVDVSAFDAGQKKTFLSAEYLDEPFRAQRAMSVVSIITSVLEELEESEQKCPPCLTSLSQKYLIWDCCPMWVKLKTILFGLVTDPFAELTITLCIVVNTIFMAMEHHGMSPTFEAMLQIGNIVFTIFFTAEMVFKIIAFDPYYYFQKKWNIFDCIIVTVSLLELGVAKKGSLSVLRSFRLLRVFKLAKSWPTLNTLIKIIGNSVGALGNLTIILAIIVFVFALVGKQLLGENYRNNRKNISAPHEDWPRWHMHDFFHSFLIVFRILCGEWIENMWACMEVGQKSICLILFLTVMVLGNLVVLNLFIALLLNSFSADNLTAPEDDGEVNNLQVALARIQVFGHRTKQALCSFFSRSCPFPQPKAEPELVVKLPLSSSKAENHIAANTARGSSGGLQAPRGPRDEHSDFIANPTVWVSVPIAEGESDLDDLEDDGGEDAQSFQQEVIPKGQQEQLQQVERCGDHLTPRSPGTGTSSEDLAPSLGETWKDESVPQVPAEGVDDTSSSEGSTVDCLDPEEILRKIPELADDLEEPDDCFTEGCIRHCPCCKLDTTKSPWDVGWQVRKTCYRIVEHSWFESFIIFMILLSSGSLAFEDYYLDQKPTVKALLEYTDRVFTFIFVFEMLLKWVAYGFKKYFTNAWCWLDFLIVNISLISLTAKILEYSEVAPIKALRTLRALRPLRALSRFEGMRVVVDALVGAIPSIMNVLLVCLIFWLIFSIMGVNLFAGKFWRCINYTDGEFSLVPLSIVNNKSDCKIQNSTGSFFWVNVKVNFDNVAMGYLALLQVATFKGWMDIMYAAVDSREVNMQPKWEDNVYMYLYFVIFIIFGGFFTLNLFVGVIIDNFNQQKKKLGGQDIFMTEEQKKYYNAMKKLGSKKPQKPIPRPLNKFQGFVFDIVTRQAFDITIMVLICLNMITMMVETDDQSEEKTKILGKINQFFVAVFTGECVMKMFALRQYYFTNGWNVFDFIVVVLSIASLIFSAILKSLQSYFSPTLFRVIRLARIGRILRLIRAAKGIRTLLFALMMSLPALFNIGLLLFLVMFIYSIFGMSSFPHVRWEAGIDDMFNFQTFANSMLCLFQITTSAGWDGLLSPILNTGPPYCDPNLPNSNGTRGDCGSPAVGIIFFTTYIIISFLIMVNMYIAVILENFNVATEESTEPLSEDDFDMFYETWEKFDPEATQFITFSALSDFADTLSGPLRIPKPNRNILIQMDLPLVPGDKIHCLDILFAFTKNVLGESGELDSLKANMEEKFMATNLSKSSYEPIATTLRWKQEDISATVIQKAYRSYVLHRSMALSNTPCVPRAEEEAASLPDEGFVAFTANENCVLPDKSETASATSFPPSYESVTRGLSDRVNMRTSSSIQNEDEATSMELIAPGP
T1 sequence (Q9NY72 23-215 partner): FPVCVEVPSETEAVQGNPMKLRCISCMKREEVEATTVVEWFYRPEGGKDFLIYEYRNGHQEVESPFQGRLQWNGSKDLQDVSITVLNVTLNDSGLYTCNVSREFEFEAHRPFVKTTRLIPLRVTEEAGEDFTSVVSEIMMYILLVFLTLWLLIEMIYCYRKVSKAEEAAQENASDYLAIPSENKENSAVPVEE

As for `CNCC(=O)N=[S@](C)(=O)c1cccc(NC(=O)c2c(Oc3ccc(F)nc3C)ncc(C(F)(F)F)c2C)c1` [Example 1D, (R)-2-((6-fluoro-2-methylpyridin-3-yl)oxy)-4-methyl-N-(3-(S-methyl-N-(methylglycyl)sulfonimidoyl)phenyl)-5-(trifluoromethyl)nicotinamide], the IC50 reads like this: under setting [1], under 5 nM; under setting [2], under 5 nM.

With `Cc1nc(F)ccc1Oc1ncc(C(F)F)c(C)c1C(=O)Nc1ccnc([S@@](C)(=N)=O)c1` [Example 114C], the IC50 is over 200 nM under setting [3] and over 200 nM under setting [4].

For the compound `Cc1nc(F)ccc1Oc1cc(C(F)(F)F)c(Cl)c(F)c1C(=O)Nc1cccc([S@](C)(=N)=O)c1` [Example 43A], the IC50 reads like this: under setting [5], under 5 nM; under setting [6], under 5 nM.

Turning to `Cc1nc(F)ccc1Oc1ncc(C(F)(F)F)c(C)c1C(=O)Nc1cccc([S@@](C)(=O)=NC(=O)[C@@H]2CCCO2)c1` [Example 7D, 2-((6-fluoro-2-methylpyridin-3-yl)oxy)-4-methyl-N-(3-((R)—S-methyl-N—((S)-tetrahydrofuran-2-carbonyl)sulfonimidoyl)phenyl)-5-(trifluoromethyl)nicotinamide], the half-inhibitory concentration (IC50) under setting [1] was under 5 nM and the IC50 under setting [2] was under 5 nM.

Regarding `C[S@@](=N)(=O)c1cccc(NC(=O)c2c(Oc3ccc(OC(F)(F)F)cc3)cc(C(F)(F)F)c(Cl)c2F)c1` [Example 50A], the IC50 is under 5 nM under setting [5] and under 5 nM under setting [6].

Take `Cc1nc(F)ccc1Oc1cc(C(F)(F)F)c(Cl)c(C)c1C(=O)Nc1ccnc([S@](C)(=N)=O)c1` [Example 65A]: the IC50 is, setting by setting: under setting [5], under 5 nM; under setting [6], under 5 nM.

With `Cc1nc(F)ccc1Oc1cc(C(F)(F)F)c(Cl)cc1C(=O)Nc1cccc([S@@](C)(=O)=NC(=O)C2(N)CCC2)c1` [Example 6B, (R)—N-(3-(N-(1-aminocyclobutane-1-carbonyl)-S-methylsulfonimidoyl)phenyl)-5-chloro-2-((6-fluoro-2-methylpyridin-3-yl)oxy)-4-(trifluoromethyl)benzamide], the 50% inhibitory concentration (IC50) reads like this: under setting [7], under 5 nM; under setting [8], under 5 nM.

On to `Cc1nc(F)ccc1Oc1ncc(C(F)(F)F)c(C)c1C(=O)Nc1cccc([S@@](C)(=O)=NC(=O)[C@@H]2CCOC2)c1` [Example 10D, 2-((6-fluoro-2-methylpyridin-3-yl)oxy)-4-methyl-N-(3-((R)—S-methyl-N—((R)-tetrahydrofuran-3-carbonyl)sulfonimidoyl)phenyl)-5-(trifluoromethyl)nicotinamide], for which the IC50 under setting [1] is under 5 nM and the IC50 under setting [2] is under 5 nM.

Regarding `Cc1nc(F)ccc1Oc1ncc(C(F)(F)F)c(C)c1C(=O)Nc1cccc(S(C)(=N)=N)c1` [Example 40C, ((3-(2-((6-fluoro-2-methylpyridin-3-yl)oxy)-4-methyl-5-(trifluoromethyl)nicotinamido)phenyl)(methyl)-l6-sulfanediylidene)diamine], the IC50 is, setting by setting: under setting [3], under 5 nM; under setting [4], under 5 nM.

With `COc1cc(C#N)ccc1Oc1ncc(Cl)c(C)c1C(=O)Nc1cccc([S@](C)(=N)=O)c1` [Example 26C, (R)-5-chloro-2-(4-cyano-2-methoxyphenoxy)-4-methyl-N-(3-(S-methylsulfonimidoyl)phenyl)nicotinamide], the IC50 is, setting by setting: under setting [3], 5 to 50 nM; under setting [4], 5 to 50 nM.

In the case of `Cc1nc(F)ccc1Oc1cc(C2CC2)c(C(F)(F)F)cc1C(=O)Nc1ccc(F)c([S@](C)(=N)=O)c1` [Example 52A], the IC50 is under 5 nM under setting [5] and under 5 nM under setting [6].

As to `Cc1cc(C#N)ccc1Oc1cc(C(F)(F)F)nnc1C(=O)Nc1cccc(S(C)(=N)=O)c1` (stereo not drawn) [Example 39C, 4-(4-cyano-2-methylphenoxy)-N-(3-(S-methylsulfonimidoyl)phenyl)-6-(trifluoromethyl)pyridazine-3-carboxamide], the IC50 by setting is: under setting [3], over 200 nM; under setting [4], over 200 nM.

On to `Cc1nc(F)ccc1Oc1ncc(-c2ccc(F)c(F)c2)c(C)c1C(=O)Nc1cccc(S(C)(=N)=N)c1` [Example 124C], for which the half-inhibitory concentration (IC50) fell in the range of 5 to 50 nM under setting [3] and 5 to 50 nM under setting [4].

For the compound `Cc1nc(F)ccc1Oc1cc(C(F)(F)F)cc(F)c1C(=O)Nc1ccnc([S@](C)(=N)=O)c1` [Example 40A], the 50% inhibitory concentration (IC50) fell in the range of 5 to 50 nM under setting [5] and 5 to 50 nM under setting [6].

For `Cc1nc(F)ccc1Oc1ccc(C(F)(F)F)c(C)c1C(=O)Nc1cccc([S@@](C)(=O)=NC(=O)[C@H](C)O)c1` [Example 23B], the IC50 by setting is: under setting [7], under 5 nM; under setting [8], under 5 nM.

As for `Cc1nc(F)ccc1Oc1ncc(-c2ccc(F)c(F)c2)c(C)c1C(=O)Nc1cccc([S@](C)(=N)=O)c1` [Example 6C, (R)-5-(3,4-difluorophenyl)-2-((6-fluoro-2-methylpyridin-3-yl)oxy)-4-methyl-N-(3-(S-methylsulfonimidoyl)phenyl)nicotinamide], the half-maximal inhibitory concentration (IC50) is under 5 nM under setting [3] and under 5 nM under setting [4].

Take `Cc1nc(F)ccc1Oc1cc(C2CC2)c(C(F)(F)F)c(C)c1C(=O)Nc1cccc([S@](C)(=N)=O)c1` [Example 9A, (R)-4-cyclopropyl-6-((6-fluoro-2-methylpyridin-3-yl)oxy)-2-methyl-N-(3-(S-methylsulfonimidoyl)phenyl)-3-(trifluoromethyl)benzamide]: the half-inhibitory concentration (IC50) runs as follows: (P1 measurement, resting state block, holding potential −120 mV, first set of compounds, read-out: P1 (IC50, resting state block)) under 5 nM; (P2 measurement, inactivated state block, inactivation step −35 mV 10 sec, first set of compounds, read-out: P2 (IC50, inactivated state block)) under 5 nM.

Turning to `CN=[S@](C)(=O)c1cccc(NC(=O)c2c(Oc3ccc(F)nc3C)ncc(C(F)(F)F)c2C)c1` [Example 33C, (R)—N-(3-(N,S-dimethylsulfonimidoyl)phenyl)-2-((6-fluoro-2-methylpyridin-3-yl)oxy)-4-methyl-5-(trifluoromethyl)nicotinamide], the IC50 is 5 to 50 nM under setting [3] and under 5 nM under setting [4].

With `Cc1nc(F)ccc1Oc1ncc(C(F)(F)F)c(C)c1C(=O)Nc1cccc(S(C)(=O)=NCC2(N)CC2)c1` (stereo not drawn) [Example 92C], the IC50 is under 5 nM (P1 measurement, resting state block, holding potential −120 mV, third set of compounds, read-out: P1 (IC50, resting state block)) and under 5 nM (P2 measurement, inactivated state block, inactivation step −35 mV 10 sec, third set of compounds, read-out: P2 (IC50, inactivated state block)).

In the case of `Cc1nc(F)ccc1Oc1ncc(C(F)(F)F)c(C)c1C(=O)Nc1cccc([S@@](C)(=O)=NC(=O)CO)c1` [Example 12D, (R)-2-((6-fluoro-2-methylpyridin-3-yl)oxy)-N-(3-(N-(2-hydroxyacetyl)-S-methylsulfonimidoyl)phenyl)-4-methyl-5-(trifluoromethyl)nicotinamide], the concentration for half-maximal inhibition (IC50) is under 5 nM under setting [1] and under 5 nM under setting [2].

On to `Cc1nc(F)ccc1Oc1cc(C(F)(F)F)c(Cl)cc1C(=O)Nc1cccc([S@@](C)(=O)=NC(=O)[C@@H](C)O)c1` [Example 1B, 5-chloro-2-((6-fluoro-2-methylpyridin-3-yl)oxy)-N-(3-((R)—N—((R)-2-hydroxypropanoyl)-S-methylsulfonimidoyl)phenyl)-4-(trifluoromethyl)benzamide], for which the IC50 reads like this: under setting [7], under 5 nM; under setting [8], under 5 nM.

`Cc1nc(F)ccc1Oc1ncc(C(F)(F)F)c(C)c1C(=O)Nc1cccc(S(C)(=O)=O)c1` [Example 123C]: the IC50 is, setting by setting: under setting [3], under 5 nM; under setting [4], under 5 nM.

On to `C[S@@](=N)(=O)c1cccc(NC(=O)c2c(Oc3ccc(OC(F)(F)F)cc3)cc(C(F)(F)F)c(Cl)c2Oc2ccc(OC(F)(F)F)cc2)c1` [Example 46A], for which the IC50 under setting [5] lay in the range of 100 to 200 nM and the IC50 under setting [6] lay within 100 to 200 nM.

`Cc1nc(F)ccc1Oc1cc(C(F)(F)F)c(Cl)c(C)c1C(=O)NC12CC(C(N)=O)(C1)C2` [Example 53A] came in with an IC50 under setting [5] of over 200 nM and an IC50 under setting [6] of over 200 nM.

As usually defined, the IC50 is the point on the concentration scale where inhibition reaches its midpoint.
